For one series, the system named is biosensor cells. The series is described as follows: Toxicity to biosensor cells under seeding assay conditions. Format: cell-based. The settings on record: under the assayed conditions.
In another series the target is tau fibrils (Homo sapiens, UniProt P10636). Put plainly: Table A function: disaggregators of amyloid fibrils (tau).
For another series, the target named is α-synuclein fibrils (Homo sapiens, UniProt P37840). Put plainly: Table A function: disaggregators of amyloid fibrils (alpha-synuclein).

The text below walks through data of patent US20260021092A1, “STRUCTURE-BASED DESIGN OF A NOVEL CLASS OF DRUGS FOR NEURODEGENERATIVE DISEASE” (The Regents of the University of California, priority 2022, published 2026).

Sequence of tau fibrils (P10636 1-441 isoform P10636-8): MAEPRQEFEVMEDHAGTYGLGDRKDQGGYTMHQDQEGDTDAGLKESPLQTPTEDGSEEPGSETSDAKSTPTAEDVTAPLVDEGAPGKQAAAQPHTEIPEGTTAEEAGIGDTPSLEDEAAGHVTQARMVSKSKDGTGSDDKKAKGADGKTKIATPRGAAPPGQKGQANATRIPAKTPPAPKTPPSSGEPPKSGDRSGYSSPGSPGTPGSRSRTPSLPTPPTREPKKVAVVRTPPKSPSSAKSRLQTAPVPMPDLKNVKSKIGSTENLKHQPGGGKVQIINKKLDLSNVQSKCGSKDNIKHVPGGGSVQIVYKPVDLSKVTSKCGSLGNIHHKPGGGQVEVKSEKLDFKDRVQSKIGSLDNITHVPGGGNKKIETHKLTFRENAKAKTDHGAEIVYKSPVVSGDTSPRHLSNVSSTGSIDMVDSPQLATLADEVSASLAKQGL

As to `Oc1cccc(-c2c3nc(c(-c4cccc(O)c4)c4ccc([nH]4)c(-c4cccc(O)c4)c4nc(c(-c5cccc(O)c5)c5ccc2[nH]5)CC4)C=C3)c1` [FDA-A4, Temoporfin], in the series on biosensor cells, the “toxicity to biosensor cells” value is given as “toxic”.
On to `O=C1C(Cl)=C(Nc2ccc(Cl)cc2)C(=O)c2ccccc21` [MOL18, 2-chloro-3-[(4-chlorophenyl)amino]naphthalene-1,4-dione], for which the Function entry on tau fibrils was “Dissociate tau fibrils”.
Still for that read-out and setting: next, `COc1cccc2cc(C(=O)Nc3cccc(-c4cn5ccccc5n4)c3)c(=O)oc12` [compound 1541, N-(3-(imidazo[1,2-a]pyridin-2-yl)phenyl)-8-methoxy-2-oxo-2H-chromene-3-carboxamide]: “Dissociate tau fibrils”.
As for `Cc1cc(NC(=O)Cc2ccccc2Cl)ccc1Br` [MOL06, N-(4-bromo-3-methylphenyl)-2-(2-chlorophenyl)acetamide], the Function result on α-synuclein fibrils was “Dissociate α- synuclein fibrils”.
